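The compound was tested at five concentrations on cells cultured in 96-well plates, with a 48-hour exposure period. GI50: concentration for 50% inhibition of growth.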 Calls of active or inactive are those of the source. No stated cut-off is given here; in the data, active = GI50 up to about 1.1 µM and inactive = higher.
Tests used:
Assay in all cases: NCI anticancer screen, dose series, 48 h
[1] = system: XF498
[2] = system: DU-145
[3] = system: BT-549
[4] = system: T47D
[5] = system: MDA-MB-231
[6] = system: PC-3
[7] = system: KM-20L2

O=C(NN1C(=O)CS(=O)(=O)C1c1ccc(C(F)(F)F)cc1)c1ccncc1 (stereo unspecified)
GI50 [1]: > 100 µM (inactive)

COc1ccc(-c2c(C#N)c(NC(=S)NC(=O)c3ccccc3)nc3c2CCCC3)cc1OC
GI50 [2]: > 100 µM (inactive) | GI50 [3]: > 100 µM (inactive) | GI50 [4]: 14.9 µM (inactive) | GI50 [5]: 34.7 µM (inactive) | GI50 [6]: 46.2 µM (inactive)

CCOC(=O)/C(O)=C1\C(=O)N(C)C(=O)C1c1ccc(OC)c(OC)c1 (stereo unspecified)
GI50 [7]: > 100 µM (inactive) | GI50 [1]: > 100 µM (inactive)

CC1(C)N/C(=C\C=O)C(C)(C)N1O
GI50 [2]: > 100 µM (inactive) | GI50 [5]: > 100 µM (inactive) | GI50 [6]: > 100 µM (inactive)
